The results in this text go back to patent US7485755B2, “Acid addition salt of carbasugar amine derivative” (Seikagaku Corporation, priority 2003, dated 2009).

Data set [1] in a line: Solubility test in distilled water. In kind it is physicochemical. As to conditions: thermodynamic from solid.
Data set [2] addresses T1, bovine sperm-derived β-D-galactosidase (Bos taurus, UniProt Q58D55).
T1 construct: bovine sperm-derived β-D-galactosidase (manufactured by Signa); purchased Sigma; host or cells: bovine sperm (tissue-derived)
T1 sequence (Q58D55 28-653): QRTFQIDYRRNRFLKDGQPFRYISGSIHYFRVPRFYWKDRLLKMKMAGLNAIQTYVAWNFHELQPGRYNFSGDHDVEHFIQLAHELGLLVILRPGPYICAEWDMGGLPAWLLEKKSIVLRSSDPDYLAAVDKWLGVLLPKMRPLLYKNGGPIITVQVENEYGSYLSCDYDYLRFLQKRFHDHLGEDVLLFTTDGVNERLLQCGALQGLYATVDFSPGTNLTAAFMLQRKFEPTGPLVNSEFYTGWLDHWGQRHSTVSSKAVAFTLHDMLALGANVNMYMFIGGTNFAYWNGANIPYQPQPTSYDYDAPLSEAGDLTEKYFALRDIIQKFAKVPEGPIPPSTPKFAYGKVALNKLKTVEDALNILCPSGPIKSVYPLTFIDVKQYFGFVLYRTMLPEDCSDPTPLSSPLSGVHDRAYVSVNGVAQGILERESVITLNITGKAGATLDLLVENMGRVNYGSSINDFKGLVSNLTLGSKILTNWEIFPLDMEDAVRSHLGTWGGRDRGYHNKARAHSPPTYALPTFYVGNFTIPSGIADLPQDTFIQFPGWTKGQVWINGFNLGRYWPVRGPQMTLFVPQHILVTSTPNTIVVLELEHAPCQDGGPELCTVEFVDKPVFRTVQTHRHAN
Nature of the data set: Measurement of acidic β-galactosidase inhibitory activity (4-methylumbelliferyl substrate, fluorescence). As to conditions: 0.2 M acetate buffer pH 4.4, 25° C., 30 minutes; read-out: 50% Inhibition concentration (IC50 value). It is filed as biochemical. Here is the method:
Each of Substances A-2 to 7 of the invention dissolved in water for injection, to which DMSO had been added and dissolved therein, if necessary, was diluted with a 0.2 M acetate buffer (pH 4.4) to give a concentration of 0.05, 0.125, 0.25, 0.5, 1.0, 2.5 or 5.0 μM and added at 25 μl into a 96 well microplate. Then, a 0.2 M acetate buffer (pH 4.4) solution of bovine sperm-derived β-D-galactosidase (manufactured by Signa) was added at 25 μl, and 4-methylumbelliferyl-β-D-galactopyranoside (10 μM) was further added as a fluorescence substrate at 50 μl, followed by incubation at 25° C. for 30 minutes. Then, the reaction was stopped by adding 100 μl of 2 M Na2CO3, and an amount of 4-methylumbelliferone released by the enzyme reaction (fluorescence intensity) was measured (excitation wavelength 355 nm, measuring wavelength 460 nm) by a fluorescence reader (product name; ARVOSX manufactured by WALLAC). An amount of the 4-methylumbelliferone released at the time of not adding the inhibitor was defined as 100%, and quantitative change in the 4-methylumbelliferone formed by addition of each substance to be evaluated was relatively evaluated. In addition, as the 50% inhibition concentration (IC50 value), the concentration of each substance of the invention which reduces 50% of the concentration of 4-methylumbelliferone at the time of un-adding each substance of the invention was calculated from an inhibition curve.

In the case of `CCCCCCCCN[C@@H]1C=C(CO)[C@H](O)[C@H](O)[C@H]1O` [Substance A-2], the solubility in data set [1] (distilled water, water, 24° C.) was at least 300 mg/mL. Also, the IC50 in data set [2] came to 0.476 µM. In the case of `CCCCCCCCCCN[C@@H]1C=C(CO)[C@H](O)[C@H](O)[C@H]1O` [Substance A-3], the IC50 in data set [2] was found to be 0.301 µM. On the same count and under the same terms, the figure for `CCCCCCCCCCCCN[C@@H]1C=C(CO)[C@H](O)[C@H](O)[C@H]1O` [Substance A-4] is 1.43 µM; for `CCCCCCCCCCCCCCN[C@@H]1C=C(CO)[C@H](O)[C@H](O)[C@H]1O` [Substance A-5] it is 2.69 µM; for `CCCCCCCCCCCCCCCCCCN[C@@H]1C=C(CO)[C@H](O)[C@H](O)[C@H]1O` [Substance A-6] it is 1.79 µM. In data set [1] (19° C., distilled water added to 5.4 mg of sample), `CCCCCCCCNC1C=C(CO)C(O)C(O)C1O` (stereo not shown) [Substance B-2] displayed a solubility above 108 mg/mL.
